Data as given in patent US9597407B2, “Targeted antimicrobial moieties” (C3 Jian, Inc., priority 2009, dated 2017).
Entries after “also recorded” stand apart in the source; their conditions may differ.

B1: PF-748 (peptide)
chain 1: FQGFFDVAVNKWWEEHNKAKLWKNVKGKFLEGEGEEEDDE
chain 2: FQGFFDVAVNKWWEEHNKAKLWKNVKGKFLEGEGEEEDDE
modifications: Peptide with targeting and/or antimicrobial activity

Key:
microorganisms [1] = assay: Peptide activities: binding, antimicrobial, growth or phenotype altering (Table 8)
Text: In certain embodiments, peptides described herein can have multiple activities. Thus for example, a peptide can have both binding/targeting activity and antimicrobial activity. Such peptides can be used, e.g., in a chimeric construct, for any or all of these properties. Thus, for example, a peptide designated “B” in Table 8 can be used as a targeting peptide. If it is also designated G or M it can also be used for antimicrobial activity.

microorganisms [2] = assay: Morphology, biofilm and growth disruption by peptides (Table 5); format: cell-based; set-up: key: A: Peptide aggregates; B: Less hyphal formation; Clumps; Diffuse clumps and small polyps; F: Diffuse growth; H: Thin; I: Growth inhibition; Microcolony formation; Rippled; Small polyps; Thick; W: Halo formation on top, microlonies on bottom
Text: In certain embodiments peptides that induce alterations in phenotype or other biological activities can also be used as antimicrobial effector moieties.

bacteria = assay: Binding of targeting peptides to microorganisms (Table 3); conditions: microorganism the targeting peptide binds; binding in aqueous buffers that varied with peptide solubility, preferably 1x PBS

Molecule | Activities (microorganisms [1]) | Organism, effect (microorganisms [2]; B. subtilis) | Organism, effect (microorganisms [2]; S. pneumoniae) | Target(s) (bacteria) | Organism, effect (microorganisms [2]; C. jeikeium) | Organism, effect (microorganisms [2]; MRSA) | Organism, effect (microorganisms [2]; M. luteus) | Organism, effect (microorganisms [2]; S. epidermidis) | Organism, effect (microorganisms [2]; S. mutans) | Organism, effect (morphology, biofilm and growth disruption) (microorganisms [2]; S. pneumoniae)
PF-005 (chain 1 MESIFKIKLMNGICRSENMNMKKKNKGEKI; chain 2 MESIFKIKLMNGICRSENMNMKKKNKGEKI; Peptide with targeting and/or antimicrobial activity) | G B | B. subtilis (C) | S. pneumoniae (H) | S. epidermidis and E. coli and MRSA and S. pneumoniae and E. faecalis | – | – | – | – | – | –
PF-011 (MFCYYKQHKGDNFSIEEVKNIIADNEMKVN; Peptide with targeting and/or antimicrobial activity) | G B | – | – | M. luteus; also recorded: E. coli; also recorded: P. aeruginosa; also recorded: S. pneumoniae; also recorded: C. jeikeium | C. jeikeium (C) | MRSA (R) | – | – | – | –
PF-015 (SIDKRNLYNLKYYE; Peptide with targeting and/or antimicrobial activity) | G B | – | – | E. faecalis; also recorded: C. jeikeium | – | MRSA (W) | – | – | – | –
PF-017 (ESIIE; Peptide with targeting and/or antimicrobial activity) | G B | – | – | E. coli | – | MRSA (M) | – | – | – | –
PF-020 (MKIILLLFLIFGFIVVVTLKSEHQLTLFSI; Peptide with targeting and/or antimicrobial activity) | G B | – | S. pneumoniae (D) | S. epidermidis and M. luteus and C. albicans and MRSA and S. pneumoniae and E. faecalis | – | MRSA (C) | M. luteus (C) | S. epidermidis (C) | S. mutans (F) | –
PF-021 (FSLNFSKQKYVTVN; Peptide with targeting and/or antimicrobial activity) | G B | – | – | S. epidermidis; also recorded: M. luteus; also recorded: P. mirabilis; also recorded: E. coli; also recorded: C. albicans; also recorded: E. faecalis; also recorded: C. jeikeium | C. jeikeium (R) | MRSA (R) | M. luteus (A) | S. epidermidis (A) | – | –
PF-024 (DLRKAK; Peptide with targeting and/or antimicrobial activity) | G B | – | – | M. luteus and C. albicans and MRSA and E. faecalis and C. jeikeium | – | MRSA (M) | – | S. epidermidis (D) | – | –
PF-025 (LLIIFRLWLELKWKNKK; Peptide with targeting and/or antimicrobial activity) | G B | – | – | S. epidermidis and M. luteus and P. mirabilis and E. coli and P. aeruginosa and MRSA and E. faecalis and C. jejuni | C. jeikeium (A) | MRSA (R) | M. luteus (A) | S. epidermidis (S) | – | –
PF-026 (SIHFIN; Peptide with targeting and/or antimicrobial activity) | G B | – | – | S. epidermidis and M. luteus and P. mirabilis and C. albicans and MRSA and E. faecalis and C. jeikeium | – | MRSA (M) | – | – | – | –
PF-027 (HNARKYLEFISQKIDGDKLTKEDSL; Peptide with targeting and/or antimicrobial activity) | G B | – | – | M. luteus and MRSA and E. faecalis and C. jejuni | – | MRSA (M) | – | S. epidermidis (D) | – | –
PF-029 (NSTNE; Peptide with targeting and/or antimicrobial activity) | G B | – | – | S. epidermidis; also recorded: M. luteus; also recorded: C. albicans; also recorded: C. jejuni | – | MRSA (M) | – | – | – | –
PF-031 (MPHHSTTSSRIVVPAHQSNMASTPNLSITP; Peptide with targeting and/or antimicrobial activity) | G B | – | – | M. luteus; also recorded: C. albicans | – | MRSA (M) | – | – | – | –
PF-034 (EPKKKHFPKMESASSEP; Peptide with targeting and/or antimicrobial activity) | G B | – | – | M. luteus | – | – | – | S. epidermidis (A) | – | –
PF-035 (SFYESY; Peptide with targeting and/or antimicrobial activity) | G B | – | – | S. epidermidis and M. luteus and E. coli and C. albicans and MRSA and C. jeikeium and C. jejuni | – | MRSA (M) | – | – | – | –
PF-036 (ILNRLSRIVSNEVTSLIYSLK; Peptide with targeting and/or antimicrobial activity) | G B | – | – | S. epidermidis and M. luteus and P. mirabilis and E. coli and C. albicans and MRSA and S. pneumoniae and C. jejuni | C. jeikeium (A) | MRSA (R) | M. luteus (A) | S. epidermidis (S) | – | –
PF-037 (MTKKRRYDTTEFGLAHSMTAKITLHQALYK; Peptide with targeting and/or antimicrobial activity) | G B | – | – | S. epidermidis and M. luteus and P. aeruginosa and C. albicans and MRSA and S. pneumoniae and E. faecalis and C. jeikeium | C. jeikeium (D) | MRSA (R) | M. luteus (C) | S. epidermidis (D) | – | –
PF-041 (ELLVILPGFI; Peptide with targeting and/or antimicrobial activity) | G B | – | – | MRSA | – | MRSA (M) | – | S. epidermidis (R) | – | –
PF-043 (MIKNETAYQMNELLVIRSAYAK; Peptide with targeting and/or antimicrobial activity) | G B | – | – | M. luteus; also recorded: C. jejuni | C. jeikeium (A) | MRSA (R) | M. luteus (C) | S. epidermidis (D) | – | –
PF-045 (LDINDYRSTY; Peptide with targeting and/or antimicrobial activity) | G B | – | – | S. epidermidis; also recorded: E. coli; also recorded: E. faecalis; also recorded: C. jejuni | – | MRSA (S) | – | – | – | –
PF-046 (LDFYLTKHLTLML; Peptide with targeting and/or antimicrobial activity) | G B | – | – | E. coli; also recorded: E. faecalis; also recorded: C. jeikeium | C. jeikeium (R) | MRSA (R) | – | S. epidermidis (C) | – | –
B1 | G B | – | – | – | – | – | – | – | – | S. pneumoniae (H)
